Data on 26 molecules can be found in patent publication US10550105B2 (Ribon Therapeutics Inc., priority 2018, dated 2020).

This assay has as its target PARP7 (Homo sapiens (Human), UniProt Q7Z3E1). The assay is described as follows: Enzymatic assay for inhibition of PARP7: TR-FRET displacement of biotinylated Probe A from the TIPARP active site. It is filed as binding. The note with it: Table A-1. In short, it runs like this: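 Titrated compounds compete with the biotinylated probe; after an additional 30 min incubation at 25° C, time-delayed fluorescence (90 μs) is measured. Inhibition curves use a Hill coefficient that normally floats but may be held at 1.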
On the technique in general: In TR-FRET formats the signal depends on donor and acceptor labels being close together.

A value given as a limit tells only on which side of the number the result lay.

Sequence of PARP7 (Q7Z3E1 whole entry): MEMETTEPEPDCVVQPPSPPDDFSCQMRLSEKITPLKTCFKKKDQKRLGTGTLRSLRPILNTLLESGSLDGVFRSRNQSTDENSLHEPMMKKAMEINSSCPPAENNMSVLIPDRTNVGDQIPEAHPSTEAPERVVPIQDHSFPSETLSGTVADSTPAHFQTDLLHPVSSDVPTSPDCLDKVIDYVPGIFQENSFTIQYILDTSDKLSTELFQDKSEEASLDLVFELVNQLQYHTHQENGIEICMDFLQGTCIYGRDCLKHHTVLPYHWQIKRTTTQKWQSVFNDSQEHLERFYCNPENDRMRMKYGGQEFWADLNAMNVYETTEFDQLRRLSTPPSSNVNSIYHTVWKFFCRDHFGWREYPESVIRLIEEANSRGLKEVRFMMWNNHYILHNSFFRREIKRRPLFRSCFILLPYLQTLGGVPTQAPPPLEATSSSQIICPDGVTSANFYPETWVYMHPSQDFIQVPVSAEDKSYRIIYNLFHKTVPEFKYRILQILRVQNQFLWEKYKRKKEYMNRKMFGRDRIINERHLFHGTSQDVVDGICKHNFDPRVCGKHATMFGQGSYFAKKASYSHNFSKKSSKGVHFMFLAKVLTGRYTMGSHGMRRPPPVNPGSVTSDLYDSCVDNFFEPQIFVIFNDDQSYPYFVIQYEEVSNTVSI

The IC50 is the concentration that inhibits the measured activity by half. High values mean weaker potency in that assay, low ones greater potency in that assay. The molecule `N#Cc1ccc(N2CCN(C(=O)c3cc(OC[C@H]4c5ccccc5CN4c4cn[nH]c(=O)c4C(F)(F)F)ccn3)CC2)nc1` [Example 356, (R)-6-(4-(4-((2-(6-Oxo-5-(trifluoromethyl)-1,6-dihydropyridazin-4-yl)isoindolin-1-yl)methoxy)picolinoyl)piperazin-1-yl)nicotinonitrile] had an IC50 of 100 to 1000 nM. The same measure for `N#Cc1ccc(N2CCN(C(=O)c3cc(OC[C@@H]4c5ccccc5CN4c4cn[nH]c(=O)c4C(F)(F)F)ccn3)CC2)nc1` [Example 357, (S)-6-(4-(4-((2-(6-Oxo-5-(trifluoromethyl)-1,6-dihydropyridazin-4-yl)isoindolin-1-yl)methoxy)picolinoyl)piperazin-1-yl)nicotinonitrile]: less than 100 nM; for `N#Cc1cccnc1N1CCN(C(=O)c2cccc(OCC3c4ccccc4CN3c3cn[nH]c(=O)c3C(F)(F)F)c2)CC1` (centres unmarked) [Example 358, 2-(4-(3-((2-(6-Oxo-5-(trifluoromethyl)-1,6-dihydropyridazin-4-yl)isoindolin-1-yl)methoxy)benzoyl)piperazin-1-yl)nicotinonitrile]: less than 100 nM. Under `N#Cc1cccnc1N1CCN(C(=O)c2cccc(OC[C@@H]3c4ccccc4CN3c3cn[nH]c(=O)c3C(F)(F)F)c2)CC1` [Example 359, (S)-2-(4-(3-((2-(6-Oxo-5-(trifluoromethyl)-1,6-dihydropyridazin-4-yl)isoindolin-1-yl)methoxy)benzoyl)piperazin-1-yl)nicotinonitrile] stands less than 100 nM; under `N#Cc1cccnc1N1CCN(C(=O)c2cccc(OC[C@H]3c4ccccc4CN3c3cn[nH]c(=O)c3C(F)(F)F)c2)CC1` [Example 360, (R)-2-(4-(3-((2-(6-Oxo-5-(trifluoromethyl)-1,6-dihydropyridazin-4-yl)isoindolin-1-yl)methoxy)benzoyl)piperazin-1-yl)nicotinonitrile], not below 1000 nM. The same measure for `N#Cc1cnc(N2CCN(C(=O)c3cccc(OCC4c5ccccc5CN4c4cn[nH]c(=O)c4C(F)(F)F)c3)CC2)nc1` (centres unmarked) [Example 361, 2-(4-(3-((2-(6-Oxo-5-(trifluoromethyl)-1,6-dihydropyridazin-4-yl)isoindolin-1-yl)methoxy)benzoyl)piperazin-1-yl)pyrimidine-5-carbonitrile]: less than 100 nM.

Take `CN1CCN(C(=O)c2cccc(OCC3c4ccccc4CN3c3cn[nH]c(=O)c3C(F)(F)F)c2)CC1` (centres unmarked) [Example 362, 5-(1-((3-(4-Methylpiperazine-1-carbonyl)phenoxy)methyl)isoindolin-2-yl)-4-(trifluoromethyl)pyridazin-3(2H)-one]: the IC50 lay within 100 to 1000 nM. `O=C(c1cccc(OCC2c3ccccc3CN2c2cn[nH]c(=O)c2C(F)(F)F)c1)N1CCNCC1` (centres unmarked) [Example 363, 5-(1-((3-(Piperazine-1-carbonyl)phenoxy)methyl)isoindolin-2-yl)-4-(trifluoromethyl)pyridazin-3(2H)-one] came in with an IC50 not below 1000 nM. The same measure for `N#Cc1cnc(N2CCN(C(=O)c3cccc(OC[C@H]4c5ccccc5CN4c4cn[nH]c(=O)c4C(F)(F)F)c3)CC2)nc1` [Example 364, (R)-2-(4-(3-((2-(6-oxo-5-(trifluoromethyl)-1,6-dihydropyridazin-4-yl)isoindolin-1-yl)methoxy)benzoyl)piperazin-1-yl)pyrimidine-5-carbonitrile]: not below 1000 nM; for `N#Cc1cnc(N2CCN(C(=O)c3cccc(OC[C@@H]4c5ccccc5CN4c4cn[nH]c(=O)c4C(F)(F)F)c3)CC2)nc1` [Example 365, (S)-2-(4-(3-((2-(6-oxo-5-(trifluoromethyl)-1,6-dihydropyridazin-4-yl)isoindolin-1-yl)methoxy)benzoyl)piperazin-1-yl)pyrimidine-5-carbonitrile]: less than 100 nM; for `N#Cc1cnc(N2CCN(C(=O)c3cccc(OCC4c5ccccc5CN4c4cn[nH]c(=O)c4C(F)(F)F)c3)CC2)cn1` (centres unmarked) [Example 366, 5-(4-(3-((2-(6-Oxo-5-(trifluoromethyl)-1,6-dihydropyridazin-4-yl)isoindolin-1-yl)methoxy)benzoyl)piperazin-1-yl)pyrazine-2-carbonitrile]: less than 100 nM. The same measure for `O=C(c1cccc(OCC2c3ccccc3CN2c2cn[nH]c(=O)c2C(F)(F)F)c1)N1CCn2c(nnc2C(F)(F)F)C1` (centres unmarked) [Example 367, 4-(Trifluoromethyl)-5-(1-((3-(3-(trifluoromethyl)-5,6,7,8-tetrahydro-[1,2,4]triazolo[4,3-a]pyrazine-7-carbonyl)phenoxy)methyl)isoindolin-2-yl)pyridazin-3(2H)-one]: less than 100 nM. For `O=C(c1cccc(OCC2c3ccccc3CN2c2cn[nH]c(=O)c2C(F)(F)F)c1)N1CCN(c2ccc(C(F)(F)F)cn2)CC1` (centres unmarked) [Example 368, 4-(Trifluoromethyl)-5-(1-((3-(4-(5-(trifluoromethyl)pyridin-2-yl)piperazine-1-carbonyl)phenoxy)methyl)isoindolin-2-yl)pyridazin-3(2H)-one], the IC50 was less than 100 nM. In turn, `N#Cc1cnc(N2CCN(C(=O)c3cccc(OC[C@H]4c5ccccc5CN4c4cn[nH]c(=O)c4C(F)(F)F)c3)CC2)cn1` [Example 369, (R)-5-(4-(3-((2-(6-Oxo-5-(trifluoromethyl)-1,6-dihydropyridazin-4-yl)isoindohn-1-yl)methoxy)benzoyl)piperazin-1-yl)pyrazine-2-carbonitrile] yielded an IC50 of 100 to 1000 nM. Under `N#Cc1cnc(N2CCN(C(=O)c3cccc(OC[C@@H]4c5ccccc5CN4c4cn[nH]c(=O)c4C(F)(F)F)c3)CC2)cn1` [Example 370, (S)-5-(4-(3-((2-(6-Oxo-5-(trifluoromethyl)-1,6-dihydropyridazin-4-yl)isoindohn-1-yl)methoxy)benzoyl)piperazin-1-yl)pyrazine-2-carbonitrile] stands less than 100 nM; under `N#Cc1ccc(N2CCN(C(=O)c3ccc(OCC4c5ccccc5CN4c4cn[nH]c(=O)c4C(F)(F)F)cc3)CC2)nc1` (centres unmarked) [Example 371, 6-(4-(4-((2-(6-Oxo-5-(trifluoromethyl)-1,6-dihydropyridazin-4-yl)isoindolin-1-yl)methoxy)benzoyl)piperazin-1-yl)nicotinonitrile], 100 to 1000 nM.

In turn, `O=C(c1cccc(OC[C@H]2c3ccccc3CN2c2cn[nH]c(=O)c2C(F)(F)F)c1)N1CCn2c(nnc2C(F)(F)F)C1` [Example 372, (R)-4-(Trifluoromethyl)-5-(1-((3-(3-(trifluoromethyl)-5,6,7,8-tetrahydro-[1,2,4]triazolo[4,3-a]pyrazine-7-carbonyl)phenoxy)methyl)isoindolin-2-yl)pyridazin-3(2H)-one] displayed an IC50 not below 1000 nM. The same measure for `O=C(c1cccc(OC[C@@H]2c3ccccc3CN2c2cn[nH]c(=O)c2C(F)(F)F)c1)N1CCn2c(nnc2C(F)(F)F)C1` [Example 373, (S)-4-(Trifluoromethyl)-5-(1-((3-(3-(trifluoromethyl)-5,6,7,8-tetrahydro-[1,2,4]triazolo[4,3-a]pyrazine-7-carbonyl)phenoxy)methyl)isoindolin-2-yl)pyridazin-3(2H)-one]: less than 100 nM; for `O=C(c1cncc(OCC2c3ccccc3CN2c2cn[nH]c(=O)c2C(F)(F)F)c1)N1CCN(c2ccc(C(F)(F)F)cn2)CC1` (centres unmarked) [Example 374, 4-(Trifluoromethyl)-5-(1-(((5-(4-(5-(trifluoromethyl)pyridin-2-yl)piperazine-1-carbonyl)pyridin-3-yl)oxy)methyl)isoindolin-2-yl)pyridazin-3(2H)-one]: less than 100 nM. Under `O=C(c1cncc(OCC2c3ccccc3CN2c2cn[nH]c(=O)c2C(F)(F)F)c1)N1CCN(c2ccc(F)cn2)CC1` (centres unmarked) [Example 375, 5-(1-(((5-(4-(5-Fluoropyridin-2-yl)piperazine-1-carbonyl)pyridin-3-yl)oxy)methyl)isoindolin-2-yl)-4-(trifluoromethyl)pyridazin-3(2H)-one] stands less than 100 nM. The same measure for `O=C(c1cncc(OCC2c3ccccc3CN2c2cn[nH]c(=O)c2C(F)(F)F)c1)N1CCN(c2ccc(Cl)cn2)CC1` (centres unmarked) [Example 376, 5-(1-(((5-(4-(5-Chloropyridin-2-yl)piperazine-1-carbonyl)pyridin-3-yl)oxy)methyl)isoindolin-2-yl)-4-(trifluoromethyl)pyridazin-3(2H)-one]: less than 100 nM; for `O=C(c1cccc(OCC2c3ccccc3CN2c2cn[nH]c(=O)c2C(F)(F)F)c1)N1CCN(c2ncc(C(F)(F)F)cn2)CC1` (centres unmarked) [Example 377, 4-(Trifluoromethyl)-5-(1-((3-(4-(5-(trifluoromethyl)pyrimidin-2-yl)piperazine-1-carbonyl)phenoxy)methyl)isoindolin-2-yl)pyridazin-3(2H)-one]: less than 100 nM. In turn, `O=C(c1cncc(OCC2c3ccccc3CN2c2cn[nH]c(=O)c2C(F)(F)F)c1)N1CCN(c2ncc(C(F)(F)F)cn2)CC1` (centres unmarked) [Example 378, 4-(Trifluoromethyl)-5-(1-(((5-(4-(5-(trifluoromethyl)pyrimidin-2-yl)piperazine-1-carbonyl)pyridin-3-yl)oxy)methyl)isoindolin-2-yl)pyridazin-3(2H)-one] displayed an IC50 of less than 100 nM. Under `N#Cc1cnc(N2CCN(C(=O)c3cncc(OCC4c5ccccc5CN4c4cn[nH]c(=O)c4C(F)(F)F)c3)CC2)nc1` (centres unmarked) [Example 379, 2-(4-(5-((2-(6-Oxo-5-(trifluoromethyl)-1,6-dihydropyridazin-4-yl)isoindolin-1-yl)methoxy)nicotinoyl)piperazin-1-yl)pyrimidine-5-carbonitrile] stands less than 100 nM; under `N#Cc1cnc(N2CCN(C(=O)c3cc(OCC4c5ccccc5CN4c4cn[nH]c(=O)c4C(F)(F)F)ccn3)CC2)nc1` (centres unmarked) [Example 380, 2-(4-(4-((2-(6-Oxo-5-(trifluoromethyl)-1,6-dihydropyridazin-4-yl)isoindolin-1-yl)methoxy)picolinoyl)piperazin-1-yl)pyrimidine-5-carbonitrile], less than 100 nM. The same measure for `N#Cc1ccc(N2CCN(C(=O)c3ccnc(OCC4c5ccccc5CN4c4cn[nH]c(=O)c4C(F)(F)F)c3)CC2)nc1` (centres unmarked) [Example 381, 6-(4-(2-((2-(6-Oxo-5-(trifluoromethyl)-1,6-dihydropyridazin-4-yl)isoindolin-1-yl)methoxy)isonicotinoyl)piperazin-1-yl)nicotinonitrile]: less than 100 nM.
